Experimental findings from patent publication US8093265B2, “Bicycloheteroaryl compounds as P2X7 modulators and uses thereof” (Renovis, Inc., priority 2007, dated 2012) are described below.

Series [1] in a line: Half-life in human liver microsomes (HLM). In kind it is in vitro ADME. The conditions noted are these: human liver microsomes 0.78 mg/mL, 1 μM compound, NADPH, 37° C.; for half-life at 1 μM: pH 7.4. (Liver microsomes are a subcellular fraction often used to study metabolism.)
Experimental: Half-Life in Human Liver Microsomes (HLM)
Test compounds (1 μM) are incubated with 3.3 mM MgCl2 and 0.78 mg/mL HLM (HL101) in 100 mM potassium phosphate buffer (pH 7.4) at 37° C. on the 96-deep well plate. The reaction mixture is split into two groups, a non-P450 and a P450 group. NADPH is only added to the reaction mixture of the P450 group. An aliquot of samples of P450 group is collected at 0, 10, 30, and 60 min time point, where 0 min time point indicated the time when NADPH is added into the reaction mixture of P450 group. […] Collected aliquots are extracted with acetonitrile solution containing an internal standard. […] The compound concentration in supernatant is measured by LC/MS/MS system.
The half-life value is obtained by plotting the natural logarithm of the peak area ratio of compounds/internal standard versus time. The slope of the line of best fit through the points yields the rate of metabolism (k). This is converted to a half-life value using following equations: Half-life=ln 2/k
The target of series [2] is T1, P2X7 receptor (Homo sapiens, UniProt Q99572).
T1 construct: host or cells: THP-1 cells differentiated with LPS and IFN-γ
T1 sequence (Q99572 1-595): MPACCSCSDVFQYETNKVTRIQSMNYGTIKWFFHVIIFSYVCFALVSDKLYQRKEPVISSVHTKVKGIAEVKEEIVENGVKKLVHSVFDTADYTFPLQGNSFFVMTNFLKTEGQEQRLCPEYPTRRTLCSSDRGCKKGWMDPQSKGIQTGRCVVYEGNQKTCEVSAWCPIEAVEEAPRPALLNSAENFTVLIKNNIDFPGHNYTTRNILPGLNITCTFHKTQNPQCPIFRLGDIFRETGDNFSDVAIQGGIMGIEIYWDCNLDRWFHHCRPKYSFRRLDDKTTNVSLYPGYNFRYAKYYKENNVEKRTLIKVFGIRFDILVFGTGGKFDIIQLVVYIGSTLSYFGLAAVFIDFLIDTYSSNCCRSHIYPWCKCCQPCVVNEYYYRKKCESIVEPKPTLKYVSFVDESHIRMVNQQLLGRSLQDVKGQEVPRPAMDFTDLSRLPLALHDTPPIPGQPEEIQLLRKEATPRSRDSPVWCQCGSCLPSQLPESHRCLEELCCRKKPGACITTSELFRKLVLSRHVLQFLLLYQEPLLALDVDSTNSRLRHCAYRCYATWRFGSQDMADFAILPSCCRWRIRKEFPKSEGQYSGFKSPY
The series is described as follows: IL-1β release assay in differentiated THP-1 cells (Example 9). In kind it is cell-based. The following applies: THP-1 cells differentiated with LPS and IFN-γ; 30 min pretreatment; BzATP 250 uM; IL-1β by ELISA. How it is done:
THP-1 cells (ATCC Cat #285-IF-100) are plated in 96 well plates at a concentration of 200,000 cells per well and allowed to differentiate in RPMI-1640 media (ATCC Cat #30-2001) containing 10% FBS, 100 IU/mL penicillin, 100 ug/mL streptomycin, 100 ng/mL LPS and 100 ng/mL IFN-γ for 16 hours. Following differentiation, the cells are treated for an additional 2 hours in RPMI-1640 media containing 100 IU/mL penicillin, 100 ug/mL streptomycin and fresh LPS at 100 ng/mL. The cells are then pretreated for 30 minutes with the compound of interest at the appropriate concentration in RPMI media containing 100 IU/mL penicillin, 100 ug/mL streptomycin. Following the pretreatment 2′,3′-O-(4-benzoylbenzoyl)-adenosine 5′-triphosphate (Sigma Aldrich Cat # B6396) is added to a final concentration of 250 uM, and the cells are incubated for an additional 45 minutes. 30 uL of cell supernatant is then collected and IL-1β levels are determined via ELISA (R&D systems Cat. # HSLB50) according to manufacturer's recommendations using a Tecan Safire plate reader. Background adjusted IL-1β levels of drug treated and non-treated cells are used to calculate the percent inhibition.
The following compounds have been or can be prepared according to the synthetic methods described herein for example, methods A-AA1. The compounds set forth in Table 1 were tested for activity in a cellular model as described herein. Specifically, cells were pretreated with differing amounts of the compound under test and released IL-1β determined as in Example 9, above. Measurements were made and IC50 values, presented in Table 1, below, were determined by fitting the data to a four parameter logistic equation using GraphPad Prism software (GraphPad Software, Inc). The equation may be expressed by the following formula: Y=Bottom+(Top−Bottom)/(1+10^((Log EC50−X)*HillSlope)) where X is the logarithm of concentration, Y is the response and Y starts at Bottom and goes to Top with a sigmoid shape.

A short description of series [3]: Plasma protein binding by equilibrium dialysis, human plasma. Format: in vitro ADME. The following applies: pH 7.4, equilibrium dialysis 16 hr at 37° C., % Bound. Here is the method: The plasma protein binding of compounds of invention is measured in human and rat plasma, respectively. A stock solution of the tested compound is prepared in 1 mg/mL in DMSO solution. The stock solution is spiked into the blank plasma to get a final compound concentration at 1 μg/mL for testing. Equilibrium dialysis (The equilibrium dialyzer-96TM MWCO 5K Daltons, Harvard Apparatus) method is used for the testing purpose.
The compound spiked plasma (at […]) and phosphate buffer (0.1 M, pH 7.4), 200 μl each, are added into the opposite sides of the membrane in a 96-well equilibrium dialyzer, respectively. The dialyzer plate is covered and incubated overnight (16 hr) at 37° C. in the 8-plate rotor incubator (Big Shot III 8-plate rotor, Harvard Apparatus). Aliquots (100 μL) are taken from the plasma and the buffer compartments, respectively. The matrix effects are eliminated by adding the same volume of blank plasma into the samples from buffer compartments and adding the same volume of phosphate buffer into the samples from plasma compartments. The samples are extracted by using the regular (3:1) protein precipitation extraction procedure (acetonitrile with internal standard). The supernatants are taken for LC/MS/MS analysis. The percentage of plasma-protein binding can be calculated by using the following method: % Free=[Free Drug/Total Drug]*100=[(Peak Area)buffer/(Peak Area)plasma]*100 % Bound=100−% Free.
For the purpose of Table 4, the plasma protein binding of each compound is expressed as follows: […]
(In equilibrium dialysis free small molecules cross a membrane that holds back macromolecules.)

As a reminder, the IC50 is the point on the concentration scale where inhibition reaches its midpoint. By fraction unbound is commonly meant free concentration divided by total concentration. Read a high fraction unbound as weak binding. For orientation: half-life means how long it takes for the measured level to halve. Low readings indicate rapid decline, high ones slow decline.

Turning to `C[C@H](CO)n1ccc2c(NC(=O)Cc3ccc(Cl)c(F)c3)c(Cl)ccc2c1=O` [Compound 15, 2-(4-Chloro-3-fluoro-phenyl)-N-[6-chloro-2-((R)-2-hydroxy-1-methyl-ethyl)-1-oxo-1,2-dihydro-isoquinolin-5-yl]-acetamide], in series [1], the “Half Life” value turned out to be 1.3 h. Further, the 50% inhibitory concentration (IC50) in series [2] was determined as 6 nM.
Take `C[C@H](CO)n1ccc2c(C(=O)NCC3(O)CCC4(CC3)CC4)c(Cl)ccc2c1=O` [Compound 63, 6-Chloro-2-((R)-1-hydroxypropan-2-yl)-N-((6-hydroxyspiro[2.5]octan-6-yl)methyl)-1-oxo-1,2-dihydroisoquinoline-5-carboxamide]: the free fraction (fraction unbound) at 16 hr, 1 μg/mL in series [3] fell in the range of 0.25 to 0.49. For the same compound, in series [2], the half-inhibitory concentration (IC50) was found to be 0.6 nM.
On to `C[C@H](CO)n1ccc2c(C(=O)NCc3cccc(C(F)(F)F)c3)c(Cl)ccc2c1=O` [Compound 44, 6-Chloro-2-((R)-2-hydroxy-1-methyl-ethyl)-1-oxo-1,2-dihydro-isoquinoline-5-carboxylic acid 3-trifluoromethyl-benzylamide], for which, in series [1], the half-life at 1 μM was 1.1 h. Moreover, the IC50 in series [2] amounted to 10 nM.
`Cc1ccc2c(=O)n([C@H](C)CN3CC(O)C3)ccc2c1NC(=O)Cc1ccc(C(F)(F)F)c(F)c1` [Compound 64, 2-(3-Fluoro-4-trifluoromethyl-phenyl)-N-{2-[(R)-2-(3-hydroxy-azetidin-1-yl)-1-methyl-ethyl]-6-methyl-1-oxo-1,2-dihydro-isoquinolin-5-yl}-acetamide] yielded a fraction unbound at 16 hr, 1 μg/mL in series [3] of 0.1 to 0.24. Also, the IC50 in series [2] was determined as 9 nM.
`C[C@H](CO)n1ccc2c(C(=O)NCC3(O)CCCCCC3)c(Cl)ccc2c1=O` [Compound 47, 6-Chloro-2-((R)-2-hydroxy-1-methyl-ethyl)-1-oxo-1,2-dihydro-isoquinoline-5-carboxylic acid (1-hydroxy-cycloheptylmethyl)-amide]: in series [1], the half-life at 1 μM was 0.4 h. The IC50 in series [2] turned out to be 0.8 nM.
Compound `C[C@H](CO)n1ccc2c(C(=O)NCC3CCC(F)(F)CC3)c(Cl)ccc2c1=O` [Compound 61, (R)-6-Chloro-N-((4,4-difluorocyclohexyl)methyl)-2-(1-hydroxypropan-2-yl)-1-oxo-1,2-dihydroisoquinoline-5-carboxamide] had an unbound share (fraction unbound) at 16 hr, 1 μg/mL in series [3] of 0.1 to 0.24. The IC50 in series [2] is 5 nM.
In the case of `C[C@H](CO)n1ccc2c(NC(=O)Cc3ccc(C(F)(F)F)cc3F)c(Cl)ccc2c1=O` [Compound 14, N-[6-Chloro-2-((R)-2-hydroxy-1-methyl-ethyl)-1-oxo-1,2-dihydro-isoquinolin-5-yl]-2-(2-fluoro-4-trifluoromethyl-phenyl)-acetamide], the IC50 in series [2] was 31 nM.
Take `C[C@H](CO)n1ccc2c(C(=O)NCc3ccc(Cl)c(F)c3)c(Cl)ccc2c1=O` [Compound 45, 6-Chloro-2-((R)-2-hydroxy-1-methyl-ethyl)-1-oxo-1,2-dihydro-isoquinoline-5-carboxylic acid 4-chloro-3-fluoro-benzylamide]: the half-life at 1 μM in series [1] is 1.6 h. In addition, in series [2], the 50% inhibitory concentration (IC50) stood at 13 nM.
Consider `C[C@H](C(N)=O)n1ccc2c(NC(=O)Cc3ccc(C(F)(F)F)cc3)c(Cl)ccc2c1=O` [Compound 3, (R)-2-{6-Chloro-1-oxo-5-[2-(4-trifluoromethyl-phenyl)-acetylamino]-1H-isoquinolin-2-yl}-propionamide], for which the “Half Life” value in series [1] came to 3.3 h. Also, in series [2], the half-inhibitory concentration (IC50) came out at 2 nM.
`Cc1ccc2c(=O)n([C@H](C)CO)ccc2c1NC(=O)Cc1cccc(C(F)(F)F)c1` [Compound 35, N-[2-((R)-2-Hydroxy-1-methyl-ethyl)-6-methyl-1-oxo-1,2-dihydro-isoquinolin-5-yl]-2-(3-trifluoromethyl-phenyl)-acetamide]: the IC50 in series [2] stood at 2 nM.
On the same count and under the same terms, next, `Cc1ccc2c(=O)n([C@H](C)CO)ccc2c1NC(=O)CC12CC3CC(CC(C3)C1)C2` [Compound 31, 2-Adamantan-1-yl-N-[2-((R)-2-hydroxy-1-methyl-ethyl)-6-methyl-1-oxo-1,2-dihydro-isoquinolin-5-yl]-acetamide]: 5 nM; `C[C@H](CO)n1ccc2c(C(=O)NCC3(O)CCCC(C)(C)C3)c(Cl)ccc2c1=O` (stereo partly drawn) [Compound 55, 6-Chloro-2-((R)-2-hydroxy-1-methyl-ethyl)-1-oxo-1,2-dihydro-isoquinoline-5-carboxylic acid(1-hydroxy-3,3-dimethyl-cyclohexylmethyl)-amide]: 1 nM; `C[C@H](CO)n1ccc2c(C(=O)NCC3(O)CCCCC3)c(Cl)ccc2c1=O` [Compound 57, 6-Chloro-2-((R)-2-hydroxy-1-methyl-ethyl)-1-oxo-1,2-dihydro-isoquinoline-5-carboxylic acid (1-hydroxy-cyclohexylmethyl)-amide]: 5 nM.
The same measure, in the same setting: next, `C[C@H](CO)n1ccc2c(C(=O)NCC3CCCCCC3)c(Cl)ccc2c1=O` [Compound 48, 6-Chloro-2-((R)-2-hydroxy-1-methyl-ethyl)-1-oxo-1,2-dihydro-isoquinoline-5-carboxylic acid cycloheptylmethyl-amide]: 0.2 nM.
Still for that read-out and setting: to `COc1ccc2c(=O)n([C@H](C)CO)ccc2c1NC(=O)Cc1ccc(C(F)(F)F)c(F)c1` [Compound 9, 2-(3-Fluoro-4-trifluoromethyl-phenyl)-N-[2-((R)-2-hydroxy-1-methyl-ethyl)-6-methoxy-1-oxo-1,2-dihydro-isoquinolin-5-yl]-acetamide] belongs 439 nM.
As for `C[C@H](C(=O)Nc1c(Cl)ccc2c(=O)n([C@H](C)C(N)=O)ccc12)c1ccc(Cl)cc1` [Compound 4, (R)-2-{6-Chloro-5-[(S)-2-(4-chloro-phenyl)-propionylamino]-1-oxo-1H-isoquinolin-2-yl}-propionamide], the IC50 in series [2] was 18 nM.
Take `Cc1ccc2c(=O)n([C@H](C)CN3CC[C@@H](N)C3)ccc2c1NC(=O)Cc1ccc(C(F)(F)F)c(F)c1` [Compound 67]: in series [3], the fraction unbound at 16 hr, 1 μg/mL lay within 0.1 to 0.24. Further, the IC50 in series [2] was 2 nM.
As to `C[C@H](CO)n1ccc2c(C(=O)NCC3(O)CCC(C)(C)CC3)c(Cl)ccc2c1=O` [Compound 54, (R)-6-chloro-N-((1-hydroxy-4,4-dimethylcyclohexyl)methyl)-2-(1-hydroxypropan-2-yl)-1-oxo-1,2-dihydroisoquinoline-5-carboxamide], the half-life at 1 μM in series [1] is 0.3 h. Also, the IC50 in series [2] worked out at 1 nM.
Turning to `C[C@H](CO)n1ccc2c(NC(=O)Cc3cccc(C(F)(F)F)c3)c(Cl)ccc2c1=O` [Compound 39, N-[6-Chloro-2-((R)-2-hydroxy-1-methyl-ethyl)-1-oxo-1,2-dihydro-isoquinolin-5-yl]-2-(3-trifluoromethyl-phenyl)-acetamide], the IC50 in series [2] turned out to be 1 nM.
